ChEMBL document CHEMBL1201862, “PubChem BioAssay data set” (2004)
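Grown in 96-well plates, cells were treated for 48 hours with each compound at five concentrations. Insufficient inhibition: endpoint recorded as highest concentration tested. GI50: concentration for 50% inhibition of growth.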 Active and inactive are the calls of the source. Cut-off read from the data, not from the text of the source: active = GI50 up to about 1.1 µM and inactive = higher.

Assays:
Test in all cases: NCI tumour cell line growth inhibition, 48 h
786-0 = system: 786-0
ACHN = system: ACHN
COLO 205 = system: COLO 205
HCT-116 = system: HCT-116
HCT-15 = system: HCT-15
HT-29 = system: HT-29
NCI-H23 = system: NCI-H23
NCI-H522 = system: NCI-H522
OVCAR-4 = system: OVCAR-4
RPMI-8226 = system: RPMI-8226
SF-295 = system: SF-295
SK-MEL-28 = system: SK-MEL-28
SK-MEL-2 = system: SK-MEL-2
SW-620 = system: SW-620
HOP-62 = system: HOP-62
OVCAR-3 = system: OVCAR-3

Row | SMILES | GI50 (786-0) | GI50 (ACHN) | GI50 (COLO 205) | GI50 (HCT-116) | GI50 (HCT-15) | GI50 (HT-29) | GI50 (NCI-H23) | GI50 (NCI-H522) | GI50 (OVCAR-4) | GI50 (RPMI-8226) | GI50 (SF-295) | GI50 (SK-MEL-28) | GI50 (SK-MEL-2) | GI50 (SW-620) | GI50 (HOP-62) | GI50 (OVCAR-3)
1 | COC(=O)C(=O)C(C(=O)C(=O)Nc1ccccc1C(N)=O)c1nc2ccc(C(=O)c3ccccc3)cc2nc1O (stereo not drawn) | > 100 µM (inactive) | > 100 µM (inactive) | > 100 µM (inactive) | > 100 µM (inactive) | > 100 µM | > 100 µM (inactive) | > 100 µM (inactive) | 23.5 µM (inactive) | > 100 µM (inactive) | > 100 µM (inactive) | > 100 µM (inactive) | > 100 µM (inactive) | > 100 µM (inactive) | > 100 µM (inactive) |  | 
2 | O=C(O)[C@H](NS(=O)(=O)c1ccc([N+](=O)[O-])cc1)c1ccccc1 | > 100 µM (inactive) | > 100 µM (inactive) | > 100 µM (inactive) | > 100 µM (inactive) | > 100 µM | > 100 µM (inactive) | > 100 µM (inactive) | > 100 µM (inactive) | > 100 µM (inactive) | > 100 µM (inactive) | > 100 µM (inactive) | > 100 µM (inactive) | > 100 µM (inactive) | > 100 µM (inactive) | > 100 µM (inactive) | > 100 µM (inactive)
3 | O=C(CCC(=O)Nc1ccc(Cl)c(Cl)c1)Cc1nc2ccccc2o1 | > 100 µM (inactive) | > 100 µM (inactive) | > 100 µM (inactive) | > 100 µM (inactive) | > 100 µM | > 100 µM (inactive) | > 100 µM (inactive) | > 100 µM (inactive) | > 100 µM (inactive) | > 100 µM (inactive) | > 100 µM (inactive) | > 100 µM (inactive) | > 100 µM (inactive) | > 100 µM (inactive) | > 100 µM (inactive) | 29.3 µM (inactive)
4 | [O-][N+]1=C(c2ccccc2)COc2ccccc21 | > 100 µM (inactive) | > 100 µM (inactive) | > 100 µM (inactive) | > 100 µM (inactive) | > 100 µM | > 100 µM (inactive) | > 100 µM (inactive) | > 100 µM (inactive) | > 100 µM (inactive) | 67.5 µM (inactive) | > 100 µM (inactive) | > 100 µM (inactive) | > 100 µM (inactive) | > 100 µM (inactive) | > 100 µM (inactive) | > 100 µM (inactive)
5 | COC(=O)C(C(=O)C(=O)Nc1ccc(C)cc1C)c1csc(-n2nc(-c3ccccc3)cc2-c2ccccc2)n1 (stereo not drawn) | > 100 µM (inactive) | 53.5 µM (inactive) | > 100 µM (inactive) | 58.1 µM (inactive) | 52.1 µM | 31.4 µM (inactive) | > 100 µM (inactive) | > 100 µM (inactive) | 82.4 µM (inactive) |  |  |  |  | > 100 µM (inactive) | > 100 µM (inactive) | 86.5 µM (inactive)
6 | COc1cc(C(Cc2ccccc2)NC(C)=O)oc(=O)c1 (stereo not drawn) | > 100 µM (inactive) | > 100 µM (inactive) | > 100 µM (inactive) |  | > 100 µM | > 100 µM (inactive) | > 100 µM (inactive) | > 100 µM (inactive) | > 100 µM (inactive) | > 100 µM (inactive) | > 100 µM (inactive) | > 100 µM (inactive) | > 100 µM (inactive) | > 100 µM (inactive) | > 100 µM (inactive) | > 100 µM (inactive)
7 | COc1cc2c(cc1O)CCN[C@@]21CS[C@H]2c3c(OC(C)=O)c(C)c4c(c3C(COC1=O)N1C2C2NC(Cc3cc(C)c(OC)c(O)c32)[C@@H]1C#N)OCO4 (stereo partly drawn) | < 0.01 µM (active) | < 0.01 µM (active) | < 0.01 µM (active) | < 0.01 µM (active) | < 0.01 µM | < 0.01 µM (active) | < 0.01 µM (active) |  | < 0.01 µM (active) | < 0.01 µM (active) |  | < 0.01 µM (active) | < 0.01 µM (active) | < 0.01 µM (active) | < 0.01 µM (active) | < 0.01 µM (active)
8 | CC(C)N(C(=O)C12C3C4C5C3C1(C(=O)N(C(C)C)C(C)C)C5(C#N)C42)C(C)C (stereo not drawn) | > 100 µM (inactive) | > 100 µM (inactive) | 40.5 µM (inactive) | 38.4 µM (inactive) | 67.5 µM | > 100 µM (inactive) | > 100 µM (inactive) | > 100 µM (inactive) | > 100 µM (inactive) | 26.7 µM (inactive) | > 100 µM (inactive) | > 100 µM (inactive) | > 100 µM (inactive) | 17.9 µM (inactive) | > 100 µM (inactive) | > 100 µM (inactive)
9 | O=C1C(c2ccc([N+](=O)[O-])cc2)=[N+]([O-])c2ccc([N+](=O)[O-])cc21 | > 100 µM (inactive) | 32.2 µM (inactive) | 35.3 µM (inactive) |  |  | 73.1 µM (inactive) | 33.8 µM (inactive) |  | 28.1 µM (inactive) | 15.5 µM (inactive) | 56.1 µM (inactive) | > 100 µM (inactive) |  | 39.4 µM (inactive) |  | 17.3 µM (inactive)
10 | CC(C)(C)OC(=O)NC1CCCC1=O (stereo not drawn) | > 100 µM (inactive) | > 100 µM (inactive) |  | > 100 µM (inactive) |  | > 100 µM (inactive) | > 100 µM (inactive) | > 100 µM (inactive) | > 100 µM (inactive) |  | > 100 µM (inactive) | > 100 µM (inactive) | > 100 µM (inactive) | > 100 µM (inactive) | > 100 µM (inactive) | > 100 µM (inactive)
11 | CNC1=C(C)C(=O)C(C)=C(C(C)(C)CC(=O)n2cc(F)c(=O)[nH]c2=O)C1=O | 22.6 µM (inactive) | 38.5 µM (inactive) | 23.6 µM (inactive) | 8.2 µM (inactive) | 19.9 µM | 12.5 µM (inactive) | 7.5 µM (inactive) | 35 µM (inactive) |  | 6.81 µM (inactive) | > 67.9 µM (inactive) | > 30.9 µM (inactive) | > 63.5 µM (inactive) | 39.9 µM (inactive) | 3.97 µM (inactive) | 38.5 µM (inactive)
12 | C=C1CCC2C(C)(CO)C(O)CCC2(C)C1CC(O)C1=CCOC1=O (stereo not drawn) | 23.1 µM (inactive) | 60.7 µM (inactive) | 38.5 µM (inactive) | 26.5 µM (inactive) | 27.4 µM | 35.7 µM (inactive) | > 100 µM (inactive) | 5.36 µM (inactive) | 61.1 µM (inactive) | > 100 µM (inactive) | 46.2 µM (inactive) | > 100 µM (inactive) | 53.5 µM (inactive) | 19.8 µM (inactive) | > 100 µM (inactive) | 26.5 µM (inactive)
13 | O=C1COc2cc3c(cc2N1)SCC(=O)N3 | > 100 µM (inactive) |  | > 100 µM (inactive) | > 100 µM (inactive) |  | > 100 µM (inactive) | > 100 µM (inactive) | > 100 µM (inactive) | > 100 µM (inactive) | > 100 µM (inactive) | > 100 µM (inactive) | > 100 µM (inactive) | > 100 µM (inactive) | > 100 µM (inactive) | > 100 µM (inactive) | > 100 µM (inactive)
14 | COc1ccc(C2C(C(=O)O)=C(COC(C)=O)Oc3cc4c(cc32)OCO4)c(OC)c1 (stereo not drawn) | > 100 µM (inactive) | > 100 µM (inactive) | > 100 µM (inactive) | > 100 µM (inactive) | > 100 µM | > 100 µM (inactive) | > 100 µM (inactive) |  | > 100 µM (inactive) | > 100 µM (inactive) | > 100 µM (inactive) | > 100 µM (inactive) | > 100 µM (inactive) | > 100 µM (inactive) | > 100 µM (inactive) | > 100 µM (inactive)
15 | Nc1ccc(C(=O)CC2(O)C(=O)Nc3c(Cl)cc(Cl)cc32)cc1 (stereo not drawn) | > 100 µM (inactive) | 94.8 µM (inactive) | > 100 µM (inactive) | 66.7 µM (inactive) | 69.7 µM | > 100 µM (inactive) | 83 µM (inactive) | 42.5 µM (inactive) | > 100 µM (inactive) | 50.9 µM (inactive) | > 100 µM (inactive) | > 100 µM (inactive) | > 100 µM (inactive) | 25.5 µM (inactive) | > 100 µM (inactive) | > 100 µM (inactive)
16 | COC(=O)/C([Se]c1c(C)cc(C)cc1C)=C(\[Se]c1c(C)cc(C)cc1C)C(=O)OC | > 100 µM (inactive) | > 100 µM (inactive) | > 100 µM (inactive) | > 100 µM (inactive) | > 100 µM | > 100 µM (inactive) | > 100 µM (inactive) | > 100 µM (inactive) | > 100 µM (inactive) | > 100 µM (inactive) | > 100 µM (inactive) |  | > 100 µM (inactive) | > 100 µM (inactive) | > 100 µM (inactive) | > 100 µM (inactive)
17 | Cc1ccc2nc(NC(=O)/C(=N\NC(=S)NN)C3C(=O)NC(=S)NC3=O)sc2c1 | > 100 µM (inactive) | > 100 µM (inactive) | > 100 µM (inactive) | > 100 µM (inactive) | > 100 µM | > 100 µM (inactive) | > 100 µM (inactive) | > 100 µM (inactive) | > 100 µM (inactive) | > 100 µM (inactive) | > 100 µM (inactive) | > 100 µM (inactive) | > 100 µM (inactive) | > 100 µM (inactive) | > 100 µM (inactive) | 
18 | C/N=C(\N)c1ccc(NC(=N)c2ccc(C(=N)Nc3ccc(/C(N)=N/C)cc3)cc2)cc1 | > 100 µM (inactive) | > 100 µM (inactive) | > 100 µM (inactive) |  | > 100 µM | > 100 µM (inactive) |  | > 100 µM (inactive) | > 100 µM (inactive) | > 100 µM (inactive) | > 100 µM (inactive) | > 100 µM (inactive) | > 100 µM (inactive) | > 100 µM (inactive) | > 100 µM (inactive) | > 100 µM (inactive)
